# From patent US5631354A, “5-O-desosaminylerythronolide derivatives” (Taisho Pharmaceutical Co., Ltd., priority 1991, dated 1997)
# Read-outs that look alike come from different tables or passages of the source.
# What was measured:
# Assay in all cases: in vitro antibacterial activity (MIC measuring method of Japanese Chemotherapeutic Association)
# Format in all cases: cell-based
# [1] = test system: E. faecalis CSJ 1212; details: Enterococcus faecalis
# Procedure: (§1) The in vitro antibacterial activity of the compounds of the present invention against various test bacteria was determined according to the MIC measuring method of Japanese Chemotherapeutic Association by using a sensitive disc media (available from Eiken Chemical Co.). 6-O-methylerythromycin A was used as a reference agent in Table 1, and erythromycin A in Table 2.
# [2] = test system: S. aureus B1; details: Staphylococcus aureus
# Procedure: as §1
# [3] = test system: S. aureus C1; details: Staphylococcus aureus
# Procedure: as §1
# [4] = test system: S. epidermides IID 866; details: read-out: MIC value (minimum inhibitory concentration)
# Procedure: as §1
# [5] = test system: S. aureus 209P-JC; details: Staphylococcus aureus, read-out: MIC value (minimum inhibitory concentration)
# Procedure: as §1
# [6] = test system: S. aureus J-109; details: Staphylococcus aureus, J109, sensitive disc media, read-out: MIC value (minimum inhibitory concentration)
# Procedure: as §1
# [7] = test system: S. aureus Smith 4; details: Staphylococcus aureus, SMITH4, sensitive disc media, read-out: MIC value (minimum inhibitory concentration)
# Procedure: as §1
# [8] = CSJ1212, read-out: MIC value (minimum inhibitory concentration)
# [9] = B1, read-out: MIC value (minimum inhibitory concentration)
# [10] = C1, read-out: MIC value (minimum inhibitory concentration)
# [11] = CSJ1212, E. faecalis CSJ 1212, sensitive disc media, read-out: MIC value (minimum inhibitory concentration)
# [12] = S. aureus 209P-JC, sensitive disc media
Structure (SMILES),"MIC [1, 8] [µg/mL]","MIC [2, 9] [µg/mL]","MIC [3, 10] [µg/mL]",MIC [4] [µg/mL],MIC ([5]; 209P) [µg/mL],MIC [6] [µg/mL],MIC [7] [µg/mL],"MIC [1, 11] [µg/mL]","MIC ([2]; S. aureus B1, sensitive disc media, read-out: MIC value (minimum inhibitory concentration)) [µg/mL]","MIC [5, 12] [µg/mL]","MIC ([3]; S. aureus C1, sensitive disc media, read-out: MIC value (minimum inhibitory concentration)) [µg/mL]"
"CC[C@H]1OC(=O)[C@H](C)[C@@H](O[C@H]2C[C@@](C)(OC)[C@@H](O)[C@H](C)O2)[C@H](C)[C@@H](O[C@@H]2O[C@H](C)C[C@H](N(C)C)[C@H]2O)[C@](C)(O)C[C@@H](C)C(=O)[C@H](C)[C@@H](O)[C@]1(C)O [erythromycin A, reference compound]",0.78,> 100,> 100,0.1,0.1,> 100,0.2,–,–,–,–
"CC[C@H]1OC(=O)[C@H](C)[C@@H](OC(=O)Cc2ccc([N+](=O)[O-])cc2[N+](=O)[O-])[C@H](C)[C@@H](O[C@@H]2O[C@H](C)C[C@H](N(C)C)[C@H]2O)[C@](C)(OC)C[C@@H](C)C(=O)[C@H](C)[C@@H](O)[C@]1(C)O [Example 3, 3-O-(2,4-dinitrophenyl)acetyl-5-O-desosaminyl-6-O-methylerythronolide A]",0.1,0.2,0.1,0.1,0.05,> 100,0.1,–,–,–,–
"CC[C@H]1OC(=O)[C@H](C)[C@@H](OC(=O)Cc2ccc([N+](=O)[O-])cc2)[C@H](C)[C@@H](O[C@@H]2O[C@H](C)C[C@H](N(C)C)[C@H]2O)[C@](C)(O)C[C@@H](C)C(=NO)[C@H](C)[C@H]2OC(=O)O[C@@]21C [Example 15, 3-0-(4-nitrophenyl)acetyl-5-O-desosaminylerythronolide A 9-oxime 11,12-cyclic carbonate]",–,0.1,0.78,0.05,0.05,> 100,0.05,0.05,–,–,–
"CC[C@H]1OC(=O)[C@H](C)[C@@H](OC(=O)Cc2ccc([N+](=O)[O-])cc2)[C@H](C)[C@@H](O[C@@H]2O[C@H](C)C[C@H](N(C)C)[C@H]2O)[C@](C)(OC)C[C@@H](C)C(=O)[C@H](C)[C@H]2OC(=O)O[C@@]21C [Example 9, 3-O-(4-nitrophenyl)acetyl-5-O-desosaminyl-6-O-methylerythronolide A 11,12 cyclic carbonate]",–,–,0.05,0.05,–,> 100,0.05,0.05,0.2,0.025,–
"CC[C@H]1OC(=O)[C@H](C)[C@@H](OC(=O)Cc2ccc([N+](=O)[O-])cc2)[C@H](C)[C@@H](O[C@@H]2O[C@H](C)C[C@H](N(C)C)[C@H]2O)[C@](C)(OC)C[C@@H](C)C(=NO)[C@H](C)[C@H]2OC(=O)O[C@@]21C [Example 1, 3-O-(4-nitrophenyl)acetyl-5-O-desosaminyl-6-O-methylerythronolide A 9-oxime 11,12cyclic carbonate]",–,0.1,0.1,0.05,–,> 100,0.05,0.05,–,0.025,–
"CC[C@H]1OC(=O)[C@H](C)[C@@H](O[C@H]2C[C@@](C)(OC)[C@@H](O)[C@H](C)O2)[C@H](C)[C@@H](O[C@@H]2O[C@H](C)C[C@H](N(C)C)[C@H]2O)[C@](C)(OC)C[C@@H](C)C(=O)[C@H](C)[C@@H](O)[C@]1(C)O [6-O-methylerythromycin A, reference compound]",0.78,> 100,–,0.1,0.05,> 100,0.1,–,–,–,25
